The results in this text go back to patent US20080200338A1, “Heteroaroyl-Substituted Serineamides” (BASF Aktiengesellschaft, priority 2005, published 2008).

As a reminder, the melting point is the temperature of the solid-liquid transition.

Consider `C=CC(O)C(NC(=O)c1cn(C)nc1C(F)(F)F)C(=O)NC` (racemic) [Compound 3.4, N-(2-Hydroxy-1-methylcarbamoylbut-3-enyl)-1-methyl-3-trifluoromethyl-1H-pyrazole-4-carboxamide], for which the melting point worked out at 136 °C.

With `C=CC(OC(C)=O)C(NC(=O)c1cn(C)nc1C(F)(F)F)C(=O)NC` (racemic) [Compound 3.10, 1-{Methylcarbamoyl-[(1-methyl-3-trifluoromethyl-1H-pyrazol-4-carbonyl)amino]methyl}-allyl acetate], the melting point is 160 °C.
